Assay results from patent publication US8399681B2, “Substituted aminothiazolone indazoles as estrogen related receptor-alpha modulators” (Janssen Pharmaceutica NV, priority 2009, dated 2013).

target: T1, ERR1 (also known as ERR-α or ERR-1) (Homo sapiens, UniProt P11474); assay: TR-FRET assay (disruption of co-activator peptide binding); format: biochemical; details: 6His-tagged ERR1 LBD, GST-hSRC2 co-activator polypeptide; average of 3 independent experiments
T1 sequence (P11474 193-421 limits assumed): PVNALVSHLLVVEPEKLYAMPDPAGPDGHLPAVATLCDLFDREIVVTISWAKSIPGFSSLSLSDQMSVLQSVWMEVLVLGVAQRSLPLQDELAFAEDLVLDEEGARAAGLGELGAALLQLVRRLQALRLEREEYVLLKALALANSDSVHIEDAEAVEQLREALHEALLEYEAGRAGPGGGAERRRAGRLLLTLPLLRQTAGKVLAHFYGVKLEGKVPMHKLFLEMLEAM
Procedure, shortened: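 His6-ERR1 LBD (6 nM) with GST-SRC-2 peptide (6 nM), anti-GST Eu cryptate (30 nM) and anti-His XL665 (7.5 nM) in Tris pH 8/KCl/DTT/BSA buffer, equilibrated 4-18 h at 25 °C. Ex 340, em 615/665 nm; hyperbolic dose-response fit, mean of 3 experiments.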

Compound | EC50 [nM]
O=C1N=C(N2CCC[C@H](C(=O)O)C2)S/C1=C\c1ccc2c(cnn2Cc2ccc(C(F)(F)F)cc2C(F)(F)F)c1 [Example 37, 1-{5-[1-(2,4-Bis-trifluoromethyl-benzyl)-1H-indazol-5-ylmethylene]-4-oxo-4,5-dihydro-thiazol-2-yl}-piperidine-3-(S)-carboxylic acid] | 5.3
O=C1N=C(N2CCNCC2)S/C1=C\c1ccc2c(cnn2Cc2ccc(C(F)(F)F)cc2C(F)(F)F)c1 [Compound 7, 5-[1-(2,4-Bis-trifluoromethyl-benzyl)-1H-indazol-5-ylmethylene]-2-piperazin-1-yl-thiazol-4-one] | 38
O=C1N=C(N2CC(C(=O)O)C2)S/C1=C\c1ccc2c(cnn2Cc2ccc(Br)cc2C(F)(F)F)c1 [Example 36, 1-{5-[1-(4-Bromo-2-trifluoromethyl-benzyl)-1H-indazol-5-ylmethylene]-4-oxo-4,5-dihydro-thiazol-2-yl}-azetidine-3-carboxylic acid] | 5.4
NC(=O)CN1CCN(C2=NC(=O)/C(=C/c3ccc4c(cnn4Cc4ccc(Cl)cc4C(F)(F)F)c3)S2)CC1 [Example 79, 2-(4-{5-[1-(4-Chloro-2-trifluoromethyl-benzyl)-1H-indazol-5-ylmethylene]-4-oxo-4,5-dihydro-thiazol-2-yl}-piperazin-1-yl)-acetamide] | 9
CN1CCN(C2=NC(=O)/C(=C/c3ccc4c(cnn4Cc4ccc(Br)cc4C(F)(F)F)c3)S2)CC1 [Example 26, 5-[1-(4-Bromo-2-trifluoromethyl-benzyl)-1H-indazol-5-ylmethylene]-2-(4-methyl-piperazin-1-yl)-thiazol-4-one] | 4.8
CCN1CCN(C2=NC(=O)/C(=C/c3ccc4c(cnn4Cc4ccc(Cl)cc4C(F)(F)F)c3)S2)CC1 [Example 63, 5-[1-(4-Chloro-2-trifluoromethyl-benzyl)-1H-indazol-5-ylmethylene]-2-(4-ethyl-piperazin-1-yl)-thiazol-4-one] | 54
O=C1N=C(N2CCN(CCO)CC2)S/C1=C\c1ccc2c(cnn2Cc2ccc(C(F)(F)F)cc2C(F)(F)F)c1 [Compound 6, 5-[1-(2,4-Bis-trifluoromethyl-benzyl)-1H-indazol-5-ylmethylene]-2-[4-(2-hydroxy-ethyl)-piperazin-1-yl]-thiazol-4-one] | 9
COC1CN(C2=NC(=O)/C(=C/c3ccc4c(cnn4Cc4ccc(Cl)cc4C(F)(F)F)c3)S2)C1 [Example 113, 5-[1-(4-Chloro-2-trifluoromethyl-benzyl)-1H-indazol-5-ylmethylene]-2-(3-methoxy-azetidin-1-yl)-thiazol-4-one] | 14
O=C1N=C(N2CCC[C@@H](C(=O)O)C2)S/C1=C\c1ccc2c(cnn2Cc2ccc(C(F)(F)F)cc2C(F)(F)F)c1 [Example 38, 1-{5-[1-(2,4-Bis-trifluoromethyl-benzyl)-1H-indazol-5-ylmethylene]-4-oxo-4,5-dihydro-thiazol-2-yl}-piperidine-3-(R)-carboxylic acid] | 9
N[C@@H]1CCCN(C2=NC(=O)/C(=C/c3ccc4c(cnn4Cc4ccc(Cl)cc4C(F)(F)F)c3)S2)C1 [Example 59, 2-(3-(R)-Amino-piperidin-1-yl)-5-[1-(4-chloro-2-trifluoromethyl-benzyl)-1H-indazol-5-ylmethylene]-thiazol-4-one] | 23
CN1CCN(C2=NC(=O)/C(=C/c3ccc4c(cnn4Cc4ccc(Cl)cc4C(F)(F)F)c3)S2)CC1 [Compound 8, 5-[1-(4-Chloro-2-trifluoromethyl-benzyl)-1H-indazol-5-ylmethylene]-2-(4-methyl-piperazin-1-yl)-thiazol-4-one] | 7
CS(=O)(=O)c1ccc(Cn2ncc3cc(/C=C4\SC(N5CCNC(=O)C5)=NC4=O)ccc32)c(Cl)c1 [Compound 18, 4-{5-[1-(2-Chloro-4-methanesulfonyl-benzyl)-1H-indazol-5-ylmethylene]-4-oxo-4,5-dihydro-thiazol-2-yl}-piperazin-2-one] | > 4000
C=C(C)c1ccc(Cn2ncc3cc(/C=C4\SC(N5CCN(C)CC5)=NC4=O)ccc32)c(C(F)(F)F)c1 [Example 30, 5-[1-(4-Isopropenyl-2-trifluoromethyl-benzyl)-1H-indazol-5-ylmethylene]-2-(4-methyl-piperazin-1-yl)-thiazol-4-one] | 23

Next, values leading:

EC50 [nM] | Compound
21 | Cc1nn(Cc2ccc(C(F)(F)F)cc2C(F)(F)F)c2ccc(/C=C3\SC(N4CCO[C@H](CO)C4)=NC3=O)cc12 [Example 180, 5-[1-(2,4-Bis-trifluoromethyl-benzyl)-3-methyl-1H-indazol-5-ylmethylene]-2-(2-(S)-hydroxymethyl-morpholin-4-yl)-thiazol-4-one]
580 | CC(C)(O)c1ccc(Cn2ncc3cc(/C=C4\SC(N5CCN[C@@H](CO)C5)=NC4=O)ccc32)c(Cl)c1 [Example 229, 5-({1-[2-Chloro-4-(1-hydroxy-1-methylethyl)benzyl]-1H-indazol-5-yl}methylidene)-2-[3-(R)-(hydroxymethyl)piperazin-1-yl]-1,3-thiazol-4(5H)-one]
38 | CC(C)(C)N1CCN(C2=NC(=O)/C(=C/c3ccc4c(cnn4Cc4ccc(C(F)(F)F)cc4C(F)(F)F)c3)S2)C[C@@H]1CO [Example 207, 5-({1-[2,4-Bis(trifluoromethyl)benzyl]-1H-indazol-5-yl}methylidene)-2-[4-tert-butyl-3-(R)-(hydroxymethyl)piperazin-1-yl]-1,3-thiazol-4(5H)-one]
49 | CC[C@H]1CN(C)CCN1C1=NC(=O)/C(=C/c2ccc3c(cnn3Cc3ccc(Cl)cc3C(F)(F)F)c2)S1 [Example 256, 5-({1-[4-Chloro-2-(trifluoromethyl)benzyl]-1H-indazol-5-yl}methylidene)-2-((2S)-2-ethyl-4-methylpiperazin-1-yl)-1,3-thiazol-4(5H)-one]
4.9 | Cc1nn(Cc2ccc(Cl)cc2C(F)(F)F)c2ccc(/C=C3\SC(N4CCN[C@@H](CO)C4)=NC3=O)cc12 [Example 183, 5-[1-(4-Chloro-2-trifluoromethyl-benzyl)-3-methyl-1H-indazol-5-ylmethylene]-2-(3-(R)-hydroxymethyl-piperazin-1-yl)-thiazol-4-one]
30 | CC1C(=O)N(C)CCN1C1=NC(=O)/C(=C/c2ccc3c(cnn3Cc3ccc(C(F)(F)F)cc3C(F)(F)F)c2)S1 (stereo not shown) [Example 170, 4-{5-[1-(2,4-Bis-trifluoromethyl-benzyl)-1H-indazol-5-ylmethylene]-4-oxo-4,5-dihydro-thiazol-2-yl}-1,3-dimethyl-piperazin-2-one]
4 | O=C1N=C(N2CCO[C@H](CO)C2)S/C1=C\c1ccc2c(cnn2Cc2ccc(O)cc2C(F)(F)F)c1 [Example 251, 2-[(2S)-2-(Hydroxymethyl)morpholin-4-yl]-5-({1-[4-hydroxy-2-(trifluoromethyl)benzyl]-1H-indazol-5-yl}methylidene)-1,3-thiazol-4(5H)-one]
14 | O=C1N=C(N2CCO[C@@H](CO)C2)S/C1=C\c1ccc2c(cnn2Cc2ccc(C(F)(F)F)cc2C(F)(F)F)c1 [Example 172, 5-[1-(2,4-Bis-trifluoromethyl-benzyl)-1H-indazol-5-ylmethylene]-2(R)-(2-hydroxymethyl-morpholin-4-yl)-thiazol-4-one]
6 | COC[C@H]1CN(C2=NC(=O)/C(=C/c3ccc4c(cnn4Cc4ccc(Cl)cc4C(F)(F)F)c3)S2)CCN1 [Example 208, 5-({1-[4-Chloro-2-(trifluoromethyl)benzyl]-1H-indazol-5-yl}methylidene)-2-[3-(R)-(methoxymethyl)piperazin-1-yl]-1,3-thiazol-4(5H)-one]
32 | COC(=O)COC1CCN(C2=NC(=O)/C(=C/c3ccc4c(cnn4Cc4ccc(Cl)cc4C(F)(F)F)c3)S2)CC1 [Example 130]
38 | C[C@@H]1CN(C2=NC(=O)/C(=C/c3ccc4c(cnn4Cc4ccc(C(C)(C)O)cc4C(F)(F)F)c3)S2)C[C@H](C)N1 [Example 243, 2-((3R,5S)-3,5-Dimethylpiperazin-1-yl)-5-({1-[4-(1-hydroxy-1-methylethyl)-2-(trifluoromethyl)benzyl]-1H-indazol-5-yl}methylidene)-1,3-thiazol-4(5H)-one]
4.1 | O=C1N=C(N2CCCN(CCF)CC2)S/C1=C\c1ccc2c(cnn2Cc2ccc(Cl)cc2C(F)(F)F)c1 [Example 133, 5-[1-(4-Chloro-2-trifluoromethyl-benzyl)-1H-indazol-5-ylmethylene]-2-[4-(2-fluoro-ethyl)-[1,4]diazepan-1-yl]-thiazol-4-one]
26 | CN(C)CC1(O)CCN(C2=NC(=O)/C(=C/c3ccc4c(cnn4Cc4ccc(Cl)cc4C(F)(F)F)c3)S2)CC1 [Example 163, 5-[1-(4-Chloro-2-trifluoromethyl-benzyl)-1H-indazol-5-ylmethylene]-2-(4-dimethylaminomethyl-4-hydroxy-piperidin-1-yl)-thiazol-4-one]
11 | C=C(C)c1ccc(Cn2ncc3cc(/C=C4\SC(N5CCO[C@@H](CO)C5)=NC4=O)ccc32)c(C(F)(F)F)c1 [Example 275, 2-[(2R)-2-(Hydroxymethyl)morpholin-4-yl]-5-({1-[4-(1-methylethenyl)-2-(trifluoromethyl)benzyl]-1H-indazol-5-yl}methylidene)-1,3-thiazol-4(5H)-one]
18 | O=C1N=C(N2C[C@H](O)[C@@H](N3CCOCC3)C2)S/C1=C\c1ccc2c(cnn2Cc2ccc(C(F)(F)F)cc2C(F)(F)F)c1 [Example 225, (5Z)-5-({1-[2,4-Bis(trifluoromethyl)benzyl]-1H-indazol-5-yl}methylidene)-2-[(3S,4S)-3-hydroxy-4-morpholin-4-ylpyrrolidin-1-yl]-1,3-thiazol-4(5H)-one]
